PubChem BioAssay AID328 (DTP/NCI, 2004)
Values joined by “and” are separate entries in the source; they are usually repeats but may differ in a detail not shown here. Equal values may be shown once. Toxic doses and inconclusive results are not listed.

Test system: BDF1 mice, P388 leukemia ip, median survival T/C
Assay: NCI In Vivo Anticancer Drug Screen. Data for tumor model P388 Leukemia (intraperitoneal) in B6D2F1 (BDF1) mice
Settings: endpoint: median survival time, higher = longer survival
Outline: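 Read-out is survival of treated animals expressed relative to the vehicle group, as a T/C ratio.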

[1] = dose: 50.0 mg/kg/injection, schedule: Q04DX003 (ip), vehicle: water
[2] = dose: 100.0 mg/kg/injection, schedule: Q04DX003 (ip), vehicle: water
[3] = dose: 400.0 mg/kg/injection, schedule: Q04DX003 (ip), vehicle: saline with Tween-80
[4] = dose: 50.0 mg/kg/injection, schedule: Q01DX009 (ip), vehicle: saline with Tween-80
[5] = dose: 100.0 mg/kg/injection, schedule: Q01DX009 (ip), vehicle: saline with Tween-80
[6] = dose: 200.0 mg/kg/injection, schedule: Q01DX009 (ip), vehicle: saline with Tween-80
[7] = dose: 400.0 mg/kg/injection, schedule: Q01DX009 (ip), vehicle: saline with Tween-80
[8] = dose: 100.0 mg/kg/injection, schedule: Q04DX003 (ip), vehicle: saline with Tween-80
[9] = dose: 200.0 mg/kg/injection, schedule: Q04DX003 (ip), vehicle: saline with Tween-80
[10] = dose: 200.0 mg/kg/injection, schedule: Q04DX003 (ip), vehicle: water
[11] = dose: 6.25 mg/kg/injection, schedule: Q01DX009 (ip), vehicle: saline
[12] = dose: 16.0 mg/kg/injection, schedule: Q01DX009 (ip), vehicle: saline

## O=[N+]([O-])c1ccc(OCc2ccc(S(=O)(=O)F)c(Cl)c2)c(Cl)c1
dose: 100.0 mg/kg/injection, schedule: Q01DX001 (ip), vehicle: saline
  T/C: 115 % of control
dose: 100.0 mg/kg/injection, schedule: Q01DX009 (ip), vehicle: Klucel (hydroxypropylcellulose) (HPC)
  T/C: 102 % of control
dose: 200.0 mg/kg/injection, schedule: Q01DX001 (ip), vehicle: saline
  T/C: 100 % of control
dose: 200.0 mg/kg/injection, schedule: Q01DX009 (ip), vehicle: Klucel (hydroxypropylcellulose) (HPC)
  T/C: 100 % of control
dose: 400.0 mg/kg/injection, schedule: Q01DX001 (ip), vehicle: saline
  T/C: 103 % of control
dose: 400.0 mg/kg/injection, schedule: Q01DX009 (ip), vehicle: Klucel (hydroxypropylcellulose) (HPC)
  T/C: 103 % of control

## COc1cccc2c1C(=O)c1c(O)c3c(c(O)c1C2=O)CC(O)(/C(C)=N\NC(=O)N/N=C(\C)C1(O)Cc2c(O)c4c(c(O)c2C(OC2CC(N)C(O)C(C)O2)C1)C(=O)c1c(OC)cccc1C4=O)CC3OC1CC(N)C(O)C(C)O1 (stereo unspecified)
dose: 3.13 mg/kg/injection, schedule: Q04DX003 (ip), vehicle: water
  T/C: 108 % of control
dose: 6.25 mg/kg/injection, schedule: Q04DX003 (ip), vehicle: water
  T/C: 117 % of control
dose: 12.5 mg/kg/injection, schedule: Q04DX003 (ip), vehicle: water
  T/C: 117 % of control
[1]
  T/C: 153 % of control
[2]
  T/C: 162 % of control

## O=C(Oc1ccc(Cl)cc1)c1ccc(C(=O)Oc2ccc(Cl)cc2)cc1
dose: 176.0 mg/kg/injection, schedule: Q04DX003 (ip), vehicle: saline with Tween-80
  T/C: 90 % of control
dose: 264.0 mg/kg/injection, schedule: Q04DX003 (ip), vehicle: saline with Tween-80
  T/C: 100 % of control
[3]
  T/C: 90 % of control

## Nc1nc2c(ccc3ccccc32)s1
dose: 25.0 mg/kg/injection, schedule: Q01DX009 (ip), vehicle: saline with Tween-80
  T/C: 117 % of control
[4]
  T/C: 117 % of control
[5]
  T/C: 122 % of control

## CCOC(=O)c1c(N)sc2c1CCCCC2
[5]
  T/C: 100 % of control
[6]
  T/C: 95 % of control
[7]
  T/C: 110 % of control

## C[N-]N(C)C(=O)[S-].C[N-]N(C)C(=O)[S-].C[N-]N(C)C(=O)[S-].[Co]
[8]
  T/C: 105 % of control

## S=C(S)Nc1cccc2ccccc12
[5]
  T/C: 100 % of control
[8]
  T/C: 90 % of control
[6]
  T/C: 100 % of control
[9]
  T/C: 109 % of control
[7]
  T/C: 105 % of control
[3]
  T/C: 95 % of control

## O/N=C(\c1ccccc1)C(c1ccccc1)C(Cl)(Cl)Cl (stereo unspecified)
dose: 100.0 mg/kg/injection, schedule: Q04DX003 (ip), vehicle: Klucel (hydroxypropylcellulose) (HPC)
  T/C: 100 % of control
dose: 200.0 mg/kg/injection, schedule: Q04DX003 (ip), vehicle: Klucel (hydroxypropylcellulose) (HPC)
  T/C: 100 % of control
dose: 400.0 mg/kg/injection, schedule: Q04DX003 (ip), vehicle: Klucel (hydroxypropylcellulose) (HPC)
  T/C: 100 % of control

## Brc1cnn2c1NCC2
dose: 12.5 mg/kg/injection, schedule: Q01DX009 (ip), vehicle: water
  T/C: 100 % of control
dose: 25.0 mg/kg/injection, schedule: Q01DX009 (ip), vehicle: water
  T/C: 93 % of control
dose: 25.0 mg/kg/injection, schedule: Q04DX003 (ip), vehicle: water
  T/C: 109 % of control and 114 % of control
dose: 50.0 mg/kg/injection, schedule: Q01DX009 (ip), vehicle: water
  T/C: 98 % of control
[1]
  T/C: 95 % of control and 118 % of control
dose: 100.0 mg/kg/injection, schedule: Q01DX009 (ip), vehicle: water
  T/C: 97 % of control
[2]
  T/C: 95 % of control and 114 % of control
dose: 200.0 mg/kg/injection, schedule: Q01DX009 (ip), vehicle: water
  T/C: 93 % of control
[10]
  T/C: 93 % of control

## NC(=O)NN=C1CSSC1
dose: 0.78 mg/kg/injection, schedule: Q01DX009 (ip), vehicle: saline with Tween-80
  T/C: 103 % of control
dose: 0.78 mg/kg/injection, schedule: Q04DX003 (ip), vehicle: saline with Tween-80
  T/C: 104 % of control
dose: 1.56 mg/kg/injection, schedule: Q01DX009 (ip), vehicle: saline with Tween-80
  T/C: 94 % of control
dose: 1.56 mg/kg/injection, schedule: Q04DX003 (ip), vehicle: saline with Tween-80
  T/C: 91 % of control
dose: 3.12 mg/kg/injection, schedule: Q01DX009 (ip), vehicle: saline with Tween-80
  T/C: 92 % of control
dose: 3.12 mg/kg/injection, schedule: Q04DX003 (ip), vehicle: saline with Tween-80
  T/C: 113 % of control
dose: 6.25 mg/kg/injection, schedule: Q01DX009 (ip), vehicle: saline with Tween-80
  T/C: 92 % of control
dose: 6.25 mg/kg/injection, schedule: Q04DX003 (ip), vehicle: saline with Tween-80
  T/C: 100 % of control
dose: 12.5 mg/kg/injection, schedule: Q01DX009 (ip), vehicle: saline with Tween-80
  T/C: 94 % of control
dose: 12.5 mg/kg/injection, schedule: Q04DX003 (ip), vehicle: saline with Tween-80
  T/C: 95 % of control

## O=C/C=C/Nc1ccccc1
[5]
  T/C: 122 % of control
[6]
  T/C: 109 % of control
[7]
  T/C: 90 % of control

## CCCCSc1cc(Cc2cc(C)ccc2O)c(O)c(Cc2cc(C)ccc2O)c1
dose: 50.0 mg/kg/injection, schedule: Q01DX009 (ip), vehicle: other
  T/C: 107 % of control
dose: 100.0 mg/kg/injection, schedule: Q01DX009 (ip), vehicle: other
  T/C: 107 % of control

## CC(=O)N(C(C)=O)c1cc([N+](=O)[O-])ccc1C
[8]
  T/C: 106 % of control
[9]
  T/C: 93 % of control

## Cc1ccc(N=C(c2ccccc2)c2ccc([N+](=O)[O-])cc2)cc1
dose: 100.0 mg/kg/injection, schedule: Q01DX001 (ip), vehicle: Klucel (hydroxypropylcellulose) (HPC)
  T/C: 108 % of control
dose: 200.0 mg/kg/injection, schedule: Q01DX001 (ip), vehicle: Klucel (hydroxypropylcellulose) (HPC)
  T/C: 100 % of control
dose: 400.0 mg/kg/injection, schedule: Q01DX001 (ip), vehicle: Klucel (hydroxypropylcellulose) (HPC)
  T/C: 104 % of control

## N[C@H](C(=O)O)[C@@H]1CC(Cl)=NO1
dose: 0.39 mg/kg/injection, schedule: Q01DX009 (ip), vehicle: saline
  T/C: 150 % of control
dose: 0.78 mg/kg/injection, schedule: Q01DX009 (ip), vehicle: saline
  T/C: 175 % of control
dose: 1.0 mg/kg/injection, schedule: Q01DX009 (ip), vehicle: saline
  T/C: 183 % of control
dose: 1.56 mg/kg/injection, schedule: Q01DX009 (ip), vehicle: saline
  T/C: 175 % of control
dose: 2.0 mg/kg/injection, schedule: Q01DX009 (ip), vehicle: saline
  T/C: 193 % of control
dose: 3.12 mg/kg/injection, schedule: Q01DX009 (ip), vehicle: saline
  T/C: 95 % of control
dose: 3.12 mg/kg/injection, schedule: Q04DX003 (ip), vehicle: saline
  T/C: 113 % of control
dose: 4.0 mg/kg/injection, schedule: Q01DX009 (ip), vehicle: saline
  T/C: 220 % of control
[11]
  T/C: 90 % of control
dose: 8.0 mg/kg/injection, schedule: Q01DX009 (ip), vehicle: saline
  T/C: 250 % of control
dose: 12.5 mg/kg/injection, schedule: Q04DX003 (ip), vehicle: saline
  T/C: 174 % of control
[12]
  T/C: 118 % of control
dose: 21.6 mg/kg/injection, schedule: Q04DX003 (ip), vehicle: saline
  T/C: 169 % of control
dose: 25.0 mg/kg/injection, schedule: Q04DX003 (ip), vehicle: saline
  T/C: 220 % of control
dose: 32.0 mg/kg/injection, schedule: Q01DX009 (ip), vehicle: saline
  T/C: 91 % of control
dose: 50.0 mg/kg/injection, schedule: Q04DX003 (ip), vehicle: saline
  T/C: 231 % of control
[1]
  T/C: 117 % of control
dose: 100.0 mg/kg/injection, schedule: Q04DX003 (ip), vehicle: saline
  T/C: 101 % of control
[10]
  T/C: 209 % of control
dose: 400.0 mg/kg/injection, schedule: Q04DX003 (ip), vehicle: water
  T/C: 196 % of control

## c1ccc(-c2nc3ccccc3nc2-c2ccc(Cc3ccc(-c4nc5ccccc5nc4-c4ccccc4)cc3)cc2)cc1
[4]
  T/C: 88 % of control
[5]
  T/C: 103 % of control
[6]
  T/C: 88 % of control

## Cc1ccc2nc3c(nc2c1)-c1cccc2cccc-3c12
[8]
  T/C: 87 % of control
[9]
  T/C: 91 % of control
[3]
  T/C: 91 % of control

## COC(=O)C(CSCSC)NC(=O)/C=C/c1cc(OC)ccc1OC (stereo unspecified)
[4]
  T/C: 93 % of control
[5]
  T/C: 92 % of control
[6]
  T/C: 88 % of control

## CCC1OCC(C(Cl)CCl)O1 (stereo unspecified)
[5]
  T/C: 118 % of control
[8]
  T/C: 113 % of control
[9]
  T/C: 118 % of control
[3]
  T/C: 104 % of control

## CC(=O)c1ccc(Oc2ccc(/C(C)=N\N=C(N)N)cc2)cc1
[11]
  T/C: 111 % of control
dose: 12.5 mg/kg/injection, schedule: Q01DX009 (ip), vehicle: saline
  T/C: 112 % of control and 117 % of control
[12]
  T/C: 116 % of control
dose: 25.0 mg/kg/injection, schedule: Q01DX009 (ip), vehicle: saline
  T/C: 110 % of control
